Measurements published in patent US20180252703A1, “AN IN VITRO 3D CELL CULTURE MODEL-BASED TUMOR RELAPSE ASSAY” (INSPHERO AG, priority 2015, published 2018).

What was measured:
[1] = system: HCT-116 3D InSight colorectal cancer microtissues; assay: Dose response of HCT-116 3D microtissues by size (area) after 5 days of compound exposure; type: cell-based; details: Homo sapiens, HCT-116, 120 h; tissue size (area), after 5 days exposure
Protocol: After microtissue formation, spheroids were transferred into GravityTRAP™ plates for further experiments. Medium was refreshed at days 4, 6 and 8 post-transfer to assay plates.
From the stock solutions, two-fold serial dilutions in DMSO were prepared for each compound, leading to 200× concentrated working dilutions.
(§1) Microtissues were treated in GravityTRAP™ plates with the indicated compound dilutions (n=4), leading to 0.5% DMSO in the cell culture medium. As a control, microtissues were exposed to 0.5% DMSO without a compound. Upon medium exchange, compounds were re-added where indicated. The treatment was performed over 10 days, however, for 2 tissues per group, the compound exposure was discontinued after 5 days and they were thereafter incubated in medium without compound (n=2).
IC20 and IC50 values were determined by plotting the tissue size over the compound concentration after incubation over 5 days.
(§2) GravityTRAP™ plates containing treated microtissues were scanned with Cell^3iMager (Dainippon, Japan) with a resolution of 4800 dpi. Microtissue size was assessed with the software provided by the manufacturer.
(§3) Air bubbles interfering with the size analysis were excluded manually, either by adjusting the image section to be analyzed by the software or by cropping the area designated to a microtissue after size measurement. The acquired data was normalized to the non-treated control (S=size of microtissue).
Dose response based on the size (area) of the tumor microtissue were used to define IC20, IC50 and the lowest maximum response concentration [nM].

[2] = system: HCT-116 3D InSight colorectal cancer microtissues; assay: Tumor relapse assay: 5-day pulsed versus 10-day continuous treatment of HCT-116 microtissues, read by size and intra-tissue ATP, relapse index ReI; type: cell-based; details: for ReI at IC50, times higher than at IC20: ReI at IC50 relative to ReI at IC20; for tumor relapse index (ReI): 5-day pulsed treatment, growth profiles over 10 days; for growth after the 5-day treatment: at the respective IC50 concentration; for tumor re-growth after removing the compound after a 5-day treatment: lower drug concentrations: 6 nM taxol, 50 nM doxorubicin, 125 nM staurosporine, size or intra-tissue ATP content; for phenotype of re-growth after drug removal: phenotypic analysis, taxol at low concentrations (6 nM)
Protocol: as §1, §2, §3
In order to determine the number of viable cells per microtissue, the amount of intracellular ATP as a measure for metabolic activity was determined by using CellTiter-Glo® Luminescent Cell Viability Assay (Promega; Madison, USA). The assay was performed according to the manufacturer's protocol with slight adaptations specific to microtissues. In brief, supernatant was removed and lysis of microtissues initiated by adding 40 μl diluted CellTiter-Glo Reagent (1:2 in PBS). The cell lysis was enhanced by pipetting up and down prior to transfer into an opaque white assay plate. […] The acquired data was normalized to the non-treated control:
To generate the tumor relapse index the growth profiles of the pulsed treatment groups were compared to the growth curves of the vehicle-only treated microtissues and the lowest maximum concentration treated group (FIG. 7). The impact of the pulsed drug treatment was set relative to the control and the maximum response of the respective drug (FIGS. 5 and 6).
To determine a tumor relapse index, the sizes (e.g., diameter, volume or area of an optical cross section) of at least one 3-dimensional cell culture or tissue in the continuous treatment group, the pulsed treatment group and the untreated control group are determined at a given point of time (endpoint measurement).
Then, (i) the difference (e.g., d2) between the size of at least one 3-dimensional cell culture or tissue in the continuous treatment group and at least one 3-dimensional cell culture or tissue in the pulsed treatment group is formed, and
(ii) the difference (e.g., d1) between the size of at least one 3-dimensional cell culture or tissue in the pulsed treatment group and at least one 3-dimensional cell culture or tissue in the untreated control group is formed.
Then, a quotient is formed out of the two differences (e.g., d1/d^2) to deliver a tumor relapse index. Such tumor relapse indices can be determined for different inhibitory concentration of the respective anti-cancer agents.

| Structure (SMILES) | IC20 [1] | IC50 [1] | capacity to re-grow after drug removal ([2]; 50 nM treated group compared with 100 nM treated group) | ReI at IC50, times higher than at IC20 [2] | tumor relapse index (ReI) ([2]; at IC20 concentration) | tumor relapse index (ReI) ([2]; at IC50 concentration) | growth after the 5-day treatment [2] | tumor re-growth after removing the compound after a 5-day treatment [2] | phenotype of re-growth after drug removal [2] | re-growth compared to continuous treated counterparts ([2]; 125 nM and 500 nM, drug removed after 5 days, size and intra-tissue ATP) | tumor removal ([2]; high concentrations, after 5 days) |
| --- | --- | --- | --- | --- | --- | --- | --- | --- | --- | --- | --- |
| COc1cccc2c1C(=O)c1c(O)c3c(c(O)c1C2=O)C[C@@](O)(C(=O)CO)C[C@@H]3O[C@H]1C[C@H](N)[C@H](O)[C@H](C)O1 [doxorubicin] | 50 nM | 200 nM | stronger capacity to re-grow | 6.6 times | 0.32 | 2.1 | the tumor was still able to grow | tumor re-growth was observed | regrew symmetrically | – | – |
| CN[C@@H]1C[C@H]2O[C@@](C)([C@@H]1OC)n1c3ccccc3c3c4c(c5c6ccccc6n2c5c31)C(=O)NC4 [staurosporine] | 31.2 nM | – | – | – | – | 0.56 | growth occurred even in a similar extent as in the non-treated control culture | tumor re-growth was observed | regrew symmetrically | re-grew substantially | – |
| CC(=O)O[C@H]1C(=O)[C@@]2(C)[C@H]([C@H](OC(=O)c3ccccc3)[C@]3(O)C[C@H](OC(=O)[C@H](O)[C@@H](NC(=O)c4ccccc4)c4ccccc4)C(C)=C1C3(C)C)[C@]1(OC(C)=O)CO[C@@H]1C[C@@H]2O [taxol] | 6.25 nM | 12.5 nM | – | 26 times | 0.59 | 15.3 | hardly any growth could be observed | tumor re-growth was observed | regrew side-specific | – | nearly complete tumor removal |
